Laboratory results published in PubChem BioAssay (NCI).
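The compound was tested at five concentrations on cells cultured in 96-well plates, with a 48-hour exposure period. TGI denotes the concentration required for complete inhibition of growth.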

Assays:
Experiment in all cases: NCI tumour cell line growth inhibition, 48 h
[1] = tested on: MALME-3M melanoma
[2] = tested on: OVCAR-4 ovarian
[3] = tested on: HCT-116 colon
[4] = tested on: HOP-92 NSCLC
[5] = tested on: SK-MEL-2 melanoma
[6] = tested on: SF-268 CNS
[7] = tested on: NCI-H460 lung
[8] = tested on: HS 578T breast
[9] = tested on: OVCAR-8 ovarian
[10] = tested on: PC-3 prostate
[11] = tested on: SR leukemia
[12] = tested on: CCRF-CEM leukemia
[13] = tested on: EKVX NSCLC
[14] = tested on: ACHN renal

Compound: C[C@@H]1CCC2[C@@H](C)[C@@H](OCCO[C@H]3OC4O[C@@]5(C)CCC6[C@H](C)CCC([C@H]3C)[C@@]46OO5)OC3O[C@@]4(C)CCC1[C@]32OO4 (stereo partly drawn)
- TGI [1]: > 100 µM
- TGI [2]: > 100 µM
- TGI [3]: > 100 µM
- TGI [4]: > 57.7 µM
- TGI [5]: 6.06 µM
- TGI [6]: > 100 µM
- TGI [7]: > 100 µM
- TGI [8]: > 100 µM
- TGI [9]: > 78.2 µM
- TGI [10]: > 95.8 µM
- TGI [11]: > 100 µM
- TGI [12]: > 100 µM
- TGI [13]: > 100 µM
- TGI [14]: > 100 µM

Compound: NC12Oc3cc(O)cc(O)c3C1(c1ccc(Cl)cc1)c1c(O)cc(O)cc1O2 (stereo not drawn)
- TGI [1]: > 100 µM
- TGI [2]: > 100 µM
- TGI [3]: > 100 µM
- TGI [4]: > 100 µM
- TGI [5]: > 100 µM
- TGI [6]: > 100 µM
- TGI [7]: > 100 µM
- TGI [8]: > 100 µM
- TGI [9]: > 100 µM
- TGI [10]: > 100 µM
- TGI [11]: > 100 µM
- TGI [12]: > 100 µM
- TGI [13]: > 100 µM
- TGI [14]: > 100 µM

Compound: S=c1[nH]n2c(COc3cccc(OCc4nnc5sc(=S)[nH]n45)c3)nnc2s1
- TGI [1]: > 100 µM
- TGI [2]: > 100 µM
- TGI [3]: > 100 µM
- TGI [4]: > 100 µM
- TGI [5]: > 100 µM
- TGI [6]: > 100 µM
- TGI [7]: > 100 µM
- TGI [8]: > 100 µM
- TGI [9]: > 100 µM
- TGI [10]: > 100 µM
- TGI [11]: > 100 µM
- TGI [12]: > 100 µM
- TGI [13]: > 100 µM
- TGI [14]: > 100 µM

Compound: CN1CCN(CN2C(=O)C3C4C=CC(C3C2=O)C2C(=O)N(CN3CCN(C)CC3)C(=O)C42)CC1 (stereo not drawn)
- TGI [1]: > 92 µM
- TGI [2]: > 100 µM
- TGI [3]: > 62.1 µM
- TGI [4]: > 100 µM
- TGI [5]: > 100 µM
- TGI [6]: > 100 µM
- TGI [7]: > 93.6 µM
- TGI [8]: > 100 µM
- TGI [9]: > 100 µM
- TGI [10]: > 100 µM
- TGI [11]: > 100 µM
- TGI [12]: > 100 µM
- TGI [13]: > 100 µM
- TGI [14]: > 100 µM

Compound: CC1C[C@]2(C)C(=O)Nc3ccccc3[C@@H]2Nc2ccccc21 (stereo partly drawn)
- TGI [1]: 62 µM
- TGI [2]: > 100 µM
- TGI [3]: 33.6 µM
- TGI [4]: 27.6 µM
- TGI [5]: 45 µM
- TGI [6]: > 100 µM
- TGI [7]: 65.8 µM
- TGI [8]: 72.9 µM
- TGI [9]: 28.9 µM
- TGI [10]: 61.3 µM
- TGI [11]: 41.4 µM
- TGI [12]: 63.4 µM
- TGI [13]: 81.8 µM
- TGI [14]: > 100 µM

Compound: O=[N+]([O-])c1ccc(S(=O)(=O)N=Ic2ccccc2)cc1
- TGI [1]: > 100 µM
- TGI [2]: > 100 µM
- TGI [3]: > 100 µM
- TGI [4]: > 100 µM
- TGI [5]: > 100 µM
- TGI [6]: > 100 µM
- TGI [7]: > 100 µM
- TGI [8]: > 100 µM
- TGI [9]: > 100 µM
- TGI [10]: > 100 µM
- TGI [11]: > 100 µM
- TGI [12]: > 100 µM
- TGI [13]: > 100 µM
- TGI [14]: > 100 µM

Compound: O=C1NN=C2C=C(c3ccc(Cl)cc3)CC(c3cccc(Cl)c3)C12 (stereo not drawn)
- TGI [1]: > 100 µM
- TGI [2]: 66.5 µM
- TGI [3]: 41 µM
- TGI [4]: 50.9 µM
- TGI [5]: 45.3 µM
- TGI [6]: > 100 µM
- TGI [7]: 47.2 µM
- TGI [8]: 55 µM
- TGI [9]: > 100 µM
- TGI [10]: > 100 µM
- TGI [11]: 41.7 µM
- TGI [12]: 71.7 µM
- TGI [13]: 64.7 µM
- TGI [14]: 48.2 µM

Compound: COc1ccc(N2C(=O)CS(=O)(=O)C2c2cccc(Oc3ccccc3)c2)cc1 (stereo not drawn)
- TGI [1]: 54.6 µM
- TGI [2]: 79.5 µM
- TGI [3]: 5.88 µM
- TGI [4]: 72.1 µM
- TGI [5]: 15.9 µM
- TGI [6]: 38.4 µM
- TGI [7]: 8.03 µM
- TGI [8]: 28.5 µM
- TGI [9]: 95.7 µM
- TGI [10]: 51.9 µM
- TGI [11]: 8.48 µM
- TGI [12]: > 100 µM
- TGI [13]: 47.8 µM
- TGI [14]: 32.8 µM

Compound: CC(=O)Nc1ccc(-c2nc3cc(Cl)ccc3o2)cc1
- TGI [1]: > 50 µM
- TGI [2]: > 50 µM
- TGI [3]: > 50 µM
- TGI [4]: > 50 µM
- TGI [5]: > 50 µM
- TGI [6]: > 50 µM
- TGI [7]: > 50 µM
- TGI [8]: > 50 µM
- TGI [9]: > 50 µM
- TGI [10]: > 50 µM
- TGI [11]: > 50 µM
- TGI [12]: > 50 µM
- TGI [13]: > 50 µM
- TGI [14]: > 50 µM

Compound: O=C(NS(=O)(=O)OCC(Cl)(Cl)Cl)SCCC(F)(F)C(F)(F)C(F)(F)C(F)(F)C(F)(F)C(F)(F)F
- TGI [1]: 37.7 µM
- TGI [2]: 31.8 µM
- TGI [3]: 40.8 µM
- TGI [4]: 23.4 µM
- TGI [5]: 66.8 µM
- TGI [6]: > 100 µM
- TGI [7]: 41.5 µM
- TGI [8]: 42.1 µM
- TGI [9]: > 100 µM
- TGI [10]: 32.4 µM
- TGI [11]: > 100 µM
- TGI [12]: 44.5 µM
- TGI [13]: 35.5 µM
- TGI [14]: > 100 µM

Compound: CC(=O)Nc1ccc2cc(C)c(=O)[nH]c2n1
- TGI [1]: > 100 µM
- TGI [2]: > 100 µM
- TGI [3]: > 100 µM
- TGI [4]: > 100 µM
- TGI [5]: > 100 µM
- TGI [6]: > 100 µM
- TGI [7]: > 100 µM
- TGI [8]: > 100 µM
- TGI [9]: > 100 µM
- TGI [10]: > 100 µM
- TGI [11]: > 100 µM
- TGI [12]: > 100 µM
- TGI [13]: > 100 µM
- TGI [14]: > 100 µM

Compound: CC(CCC#N)(CCC#N)C(=O)CC(O)(C(F)(F)F)C(F)(F)F
- TGI [1]: 12 µM
- TGI [2]: 8.01 µM
- TGI [3]: 7.57 µM
- TGI [4]: 15.6 µM
- TGI [5]: 89.2 µM
- TGI [6]: > 58.8 µM
- TGI [7]: 39 µM
- TGI [8]: 60.6 µM
- TGI [9]: 16.6 µM
- TGI [10]: 28.4 µM
- TGI [11]: 3.77 µM
- TGI [12]: 7.84 µM
- TGI [13]: 44.1 µM
- TGI [14]: 20.2 µM
